Here are results for one molecule from US20200223826A1, “Glucose-6-Phosphate Dehydrogenase (G6PD)-Modulating Agents And Methods Of Treating G6PD Deficiency” (The Board of Trustees of the Leland Stanford Junior …, priority 2017, published 2020).

The target in test [1] is T1, Canton G6PD in SH-SY5Y cells (Homo sapiens, UniProt P11413, R459L).
T1 construct: expressed in transfected cells; host or cells: SH-SY5Y neuroblastoma cells
In words: Stability of Canton G6PD in SH-SY5Y cells. The class given is cell-based. As to the method: Prior to the cellular-based assays using SH-SH5Y cells, duration of overexpression of WT G6PD and Canton variant was examined by transfecting the cells seeded in a 12-well plate. The genes encoding human WT G6PD and Canton variant were first PCR-amplified, which was then inserted into pcDNA 3.1/myc-His C (ThermoFisher Scientific) using HindIII and XhoI. 0.5 μg of cDNA and 1.5 μg of lipofectamine (Invitrogen) were diluted in 50 μL of Opti-MEM medium respectively and incubated for 5 minutes. The diluted DNA was combined with diluted lipofectamine, which was followed by incubation for 20 minutes prior to the addition to cells.
The transfected cells were collected at different time points (up to 72 hours) and the overexpressed G6PD levels were examined by Western blot. The transfection was carried out in serum-starved cells. Once the duration of expression was confirmed, other cellular-based assays were performed.
50,000 cells (SH-SH5Y cells or fibroblast cells) or 100,000 cells (lymphocytes) were seeded in a 12-well plate and incubated overnight. The cells were subjected to serum starvation (50-75%) for 48 hours and treated with 50 μg/ml of cycloheximide at different time points (0-48 hours). The cells were treated with the compound (1 μM) for 48 hours together with cycloheximide. […]
Target sequence in this assay (P11413 whole entry R459L): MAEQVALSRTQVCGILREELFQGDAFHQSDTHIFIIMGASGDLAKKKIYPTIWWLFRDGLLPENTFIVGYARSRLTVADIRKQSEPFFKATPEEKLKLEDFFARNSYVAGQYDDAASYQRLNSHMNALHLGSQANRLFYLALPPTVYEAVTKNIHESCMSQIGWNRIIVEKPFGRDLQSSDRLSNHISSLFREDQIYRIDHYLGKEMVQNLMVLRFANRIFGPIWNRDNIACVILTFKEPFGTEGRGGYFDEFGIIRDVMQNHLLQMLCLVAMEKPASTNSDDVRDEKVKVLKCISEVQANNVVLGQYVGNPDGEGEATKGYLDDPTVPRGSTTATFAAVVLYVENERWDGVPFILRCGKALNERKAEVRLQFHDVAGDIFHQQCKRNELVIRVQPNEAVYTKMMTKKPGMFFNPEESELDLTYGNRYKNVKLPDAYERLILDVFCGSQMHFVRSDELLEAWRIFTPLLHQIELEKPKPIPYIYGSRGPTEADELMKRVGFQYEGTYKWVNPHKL

The test system of a further test is human erythrocytes. In words: GSH levels in erythrocytes under oxidative stressors. The class given is cell-based. The settings on record: drug-induced oxidative stress. As to the method: De-identified blood samples were obtained from the Stanford Blood Center. Erythrocytes were collected by filtering the samples through a cellulose slurry to remove platelets and leukocytes and then washed with saline. G6PD activity was measured (Beutler E. Red cell metabolism: A manual of biochemical methods (3rd edition). Grune & Stratton (1984)). […] A 5% erythrocyte suspension was pre-incubated with 1-5 μM AG1 at 4° C. overnight, which was followed by treatment with (or without) either 1 mM chloroquine (CQ) or 1 mM diamide for 3-4 hours at 37° C. (for hemolysis assay with chloroquine, the mixture was incubated under light). Then centrifugation at 1,000 rpm for 5 minutes was followed. Hemoglobin release in the supernatant was monitored by measuring absorbance at 540 nm. […] After wash, the samples were lysed with 0.1% Triton X-100 (final concentration), and the florescence was analyzed with excitation/emission at 485/525 nm. GSH measurement was determined using a Cayman glutathione assay kit (Cayman Chemicals, 703002). […] The absorbance was read at 412 nm. For storage assay, a 5% erythrocyte suspension was stored at 4° C. with and without 1 μM AG1, and hemolysis and G6PD activity were monitored every week for 28 days to examine whether AG1 improves preservation of erythrocytes over time. Protein leakage was also examined by measuring the absorbance of the supernatant of samples at 280 nm. […]

The target of test [2] is T1, Canton G6PD in SH-SY5Y cells. Briefly: G6PD activity of SH-SY5Y cells expressing Canton variant. Format: cell-based. As to the method: (§1) Enzyme activity was measured by monitoring NADPH production, which was coupled with diaphorase converting resazurin to fluorescent resorufin (excitation at 565 nm and emission at 590 nm); fluorescent signal was thus proportional to G6PD activity. Assays were performed at 25° C. and run for 5 minutes in buffer containing 50 mM Tris (pH 7.4), 0.5 mM EDTA, 3.3 mM MgCl2, 1 U/ml diaphorase, 0.1 mM resazurin. 10 ng of recombinant enzymes or 10 μg of cell lysates was used for the assay with 10 μM NADP^+ (Sigma) as cofactor and 100 μM G6P (Sigma) as substrate. Steady-state kinetic parameters were obtained by varying concentrations of NADP^+ (0-10 μM) with a constant concentration of G6P (100 μM) and similarly for G6P (0-100 μM) with a constant concentration of NADP^+ (10 μM) with 10 ng of recombinant enzymes. Data analysis was performed using GraphPad Prism software v.6 (GraphPad Software, La Jolla, Calif. USA). Kinetic parameters were obtained by fitting the data to the Michaelis-Menten equation.
Prior to the cellular-based assays using SH-SH5Y cells, duration of overexpression of WT G6PD and Canton variant was examined by transfecting the cells seeded in a 12-well plate. The genes encoding human WT G6PD and Canton variant were first PCR-amplified, which was then inserted into pcDNA 3.1/myc-His C (ThermoFisher Scientific) using HindIII and XhoI. […]
Target sequence in this assay (P11413 2-515 R459L): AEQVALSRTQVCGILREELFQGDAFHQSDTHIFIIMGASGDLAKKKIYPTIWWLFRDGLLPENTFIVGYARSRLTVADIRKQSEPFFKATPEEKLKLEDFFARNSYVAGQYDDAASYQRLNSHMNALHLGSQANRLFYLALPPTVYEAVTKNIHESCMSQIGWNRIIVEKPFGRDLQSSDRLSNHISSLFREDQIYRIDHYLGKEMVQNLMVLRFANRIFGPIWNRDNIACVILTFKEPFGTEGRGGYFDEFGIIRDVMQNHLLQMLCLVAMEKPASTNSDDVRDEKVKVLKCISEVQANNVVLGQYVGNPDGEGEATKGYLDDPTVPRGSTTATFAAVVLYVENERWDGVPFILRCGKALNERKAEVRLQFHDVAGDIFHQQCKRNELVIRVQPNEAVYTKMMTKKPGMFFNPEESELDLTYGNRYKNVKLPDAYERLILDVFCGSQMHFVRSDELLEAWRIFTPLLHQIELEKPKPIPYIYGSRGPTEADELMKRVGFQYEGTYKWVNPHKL

In the next test the target is T2, Canton G6PD (Homo sapiens, UniProt P11413, R459L).
T2 construct: His (pET-28a) (N, cleaved yes); made in house; host or cells: E. coli C43 (DE3)
Briefly: Native gel electrophoresis, dimerization. On the procedure:
200 ng of recombinant enzymes were incubated with the compound (varying in assays) for 10 minutes at room temperature. To prevent streaking and artifacts in native PAGE gel, the samples in a native state (no boiling of sample and no reducing agent in sample buffer) were electrophoresed by […]. Cross-linking assay was initiated by incubating 500 ng of recombinant enzymes in PBS with 0.1% of glutaraldehyde and different concentrations of NADP^+ (0, 10, 100, 1000 μM) or MgCl2 (0, 1, 10, 100 mM). The mixture was incubated for 10 minutes at room temperature, which was followed by the addition of 100 mM Tris (pH 8.0) at a final concentration to terminate the reaction. The samples were electrophoresed as described above.

In a further test the target is T3, N185A G6PD (Homo sapiens, UniProt P11413, N185A).
T3 construct: His (pET-28a) (N, cleaved yes); made in house; host or cells: E. coli C43 (DE3)
Briefly: Canton-mimicking mutant: activity and proteolytic stability. The class given is biochemical. On the procedure: as §1
(§2) 200 ng of recombinant enzymes were incubated with 1 μL of 10 ng/μL chymotrypsin for 1 hour at room temperature. 100 μM of the compound was added to some reaction conditions. The following protein level was examined by Western blot.

Another test concerns the target T4, D181A G6PD (Homo sapiens, UniProt P11413, D181A).
T4 construct: His (pET-28a) (N, cleaved yes); made in house; host or cells: E. coli C43 (DE3)
The description is as above. The class given is biochemical. As to the method: as §1, §2

The structures appear in SMILES notation.

T4 sequence (P11413 whole entry D181A): as the sequence (P11413 whole entry R459L) above, with D181A, L459R counted along it
T3 sequence (P11413 whole entry N185A): as the sequence (P11413 whole entry R459L) above, with N185A, L459R counted along it
T2 sequence (P11413 whole entry R459L): as the sequence (P11413 whole entry R459L) above

With `SCCNCCc1c[nH]c2ccccc12` [AG1, 2-[2-(1H-indol-3-yl)ethylamino]ethanethiol], the “stability of Canton G6PD” value in test [1] was “increased”. In addition, the GSH levels entry with human erythrocytes is given as “increased”. Further, the G6PD activity entry in test [2] is reported as “mild increase”. Further, the “formation of active dimers” value on Canton G6PD is recorded as “promoted formation of active dimers”. The “activity and proteolytic stability” value on N185A G6PD was “increased activity and proteolytic stability”; on D181A G6PD, “increased activity and proteolytic stability”.
